# Organism: Rattus norvegicus
# Test: DrugMatrix - Regimen: Daily Repeat
# Assay type: toxicity, organism-based, Sprague-Dawley
# Design: regimen Daily Repeat, gender Male, age 6-8 weeks
# Conditions: in vivo, po, route oral GAVAGE, vehicle 100 % SALINE; for ABSOLUTE BASOPHIL / ABSOLUTE EOSINOPHIL / ABSOLUTE LYMPHOCYTE / ABSOLUTE MONOCYTE / ABSOLUTE SEGMENTED NEUTROPHIL / BASOPHIL / EOSINOPHIL / ERYTHROCYTE COUNT / HEMOGLOBIN / LEUKOCYTE COUNT / LYMPHOCYTE / MEAN CORPUSCULAR HEMOGLOBIN / MEAN CORPUSCULAR HEMOGLOBIN CONCENTRATION / MEAN CORPUSCULAR VOLUME / MONOCYTE / NEUTROPHIL / NUCLEATED RED BLOOD CELLS / PLATELET COUNT / HEMATOCRIT: tissue Blood
# [1] = 200 mg/kg, 120 h, dose level Low, time 5 day
# [2] = 200 mg/kg, 120 h, tissue Plasma, dose level Low, time 5 day
# [3] = 600 mg/kg, 72 h, dose level High, time 3 day
# [4] = 600 mg/kg, 72 h, tissue Plasma, dose level High, time 3 day
# [5] = 600 mg/kg, 120 h, dose level High, time 5 day
# [6] = 600 mg/kg, 120 h, tissue Plasma, dose level High, time 5 day
substance,measurement,setting,value
LEAD(IV) ACETATE,ABSOLUTE BASOPHIL,[1],0 CELLS/uL
same,ABSOLUTE EOSINOPHIL,[1],0 CELLS/uL
same,ABSOLUTE LYMPHOCYTE,[1],11837.33 CELLS/uL
same,ABSOLUTE MONOCYTE,[1],82.67 CELLS/uL
same,ABSOLUTE SEGMENTED NEUTROPHIL,[1],680 CELLS/uL
same,BASOPHIL,[1],0%
same,EOSINOPHIL,[1],0%
same,ERYTHROCYTE COUNT,[1],5.76 x10E6/uL
same,HEMOGLOBIN,[1],13.8 G/DL
same,LEUKOCYTE COUNT,[1],12.6 x10E3/uL
same,LYMPHOCYTE,[1],93.67%
same,MEAN CORPUSCULAR HEMOGLOBIN,[1],23.93 pg
same,MEAN CORPUSCULAR HEMOGLOBIN CONCENTRATION,[1],39.23 G/DL
same,MEAN CORPUSCULAR VOLUME,[1],61.03 fL
same,MONOCYTE,[1],0.67%
same,NEUTROPHIL,[1],5.67%
same,NUCLEATED RED BLOOD CELLS,[1],0.33 /100WBC
same,PLATELET COUNT,[1],1075 x10E3/uL
same,ALANINE AMINOTRANSFERASE,[2],43.33 u/L
same,ALKALINE PHOSPHATASE,[2],339 u/L
same,ASPARTATE AMINOTRANSFERASE,[2],80 u/L
same,BLOOD UREA NITROGEN,[2],13.33 mg/dL
same,CARBON DIOXIDE,[2],33 mmol/L
same,CHLORIDE,[2],99 MEQ/L
same,CHOLESTEROL,[2],74.67 mg/dL
same,CREATINE PHOSPHOKINASE,[2],263.33 u/L
same,CREATININE,[2],0.31 mg/dL
same,GLUCOSE,[2],134 mg/dL
same,LACTATE DEHYDROGENASE,[2],132.67 u/L
same,LIPASE,[2],14.33 u/L
same,PHOSPHORUS,[2],11.33 mg/dL
same,POTASSIUM,[2],5.88 MEQ/L
same,SODIUM,[2],146.7 MEQ/L
same,TOTAL BILIRUBIN,[2],0.17 mg/dL
same,TOTAL PROTEIN,[2],6.4 G/DL
same,URIC ACID,[2],0.57 mg/dL
same,ABSOLUTE BASOPHIL,[3],0 CELLS/uL
same,ABSOLUTE EOSINOPHIL,[3],0 CELLS/uL
same,ABSOLUTE LYMPHOCYTE,[3],6951.33 CELLS/uL
same,ABSOLUTE MONOCYTE,[3],49.33 CELLS/uL
same,ABSOLUTE SEGMENTED NEUTROPHIL,[3],532.67 CELLS/uL
same,BASOPHIL,[3],0%
same,EOSINOPHIL,[3],0%
same,ERYTHROCYTE COUNT,[3],5.19 x10E6/uL
same,HEMATOCRIT,[3],32%
same,HEMOGLOBIN,[3],12.7 G/DL
same,LEUKOCYTE COUNT,[3],7.53 x10E3/uL
same,LYMPHOCYTE,[3],92%
same,MEAN CORPUSCULAR HEMOGLOBIN CONCENTRATION,[3],39.7 G/DL
same,MONOCYTE,[3],0.67%
same,NEUTROPHIL,[3],7.33%
same,NUCLEATED RED BLOOD CELLS,[3],0 /100WBC
same,PLATELET COUNT,[3],1337.33 x10E3/uL
same,ALANINE AMINOTRANSFERASE,[4],41.67 u/L
same,ALBUMIN,[4],4 G/DL
same,ALKALINE PHOSPHATASE,[4],253 u/L
same,ASPARTATE AMINOTRANSFERASE,[4],83 u/L
same,BLOOD UREA NITROGEN,[4],10.33 mg/dL
same,CARBON DIOXIDE,[4],27 mmol/L
same,CHOLESTEROL,[4],81.33 mg/dL
same,CREATINE PHOSPHOKINASE,[4],396 u/L
same,CREATININE,[4],0.38 mg/dL
same,LACTATE DEHYDROGENASE,[4],126.67 u/L
same,LIPASE,[4],11.33 u/L
same,POTASSIUM,[4],5.16 MEQ/L
same,TOTAL BILIRUBIN,[4],0.1 mg/dL
same,URIC ACID,[4],0.83 mg/dL
same,ABSOLUTE BASOPHIL,[5],0 CELLS/uL
same,ABSOLUTE EOSINOPHIL,[5],0 CELLS/uL
same,ABSOLUTE LYMPHOCYTE,[5],13230 CELLS/uL
same,ABSOLUTE MONOCYTE,[5],139 CELLS/uL
same,ABSOLUTE SEGMENTED NEUTROPHIL,[5],1031 CELLS/uL
same,BASOPHIL,[5],0%
same,EOSINOPHIL,[5],0%
same,ERYTHROCYTE COUNT,[5],6.04 x10E6/uL
same,HEMATOCRIT,[5],35.43%
same,HEMOGLOBIN,[5],13.83 G/DL
same,LEUKOCYTE COUNT,[5],14.4 x10E3/uL
same,LYMPHOCYTE,[5],92%
same,MEAN CORPUSCULAR HEMOGLOBIN,[5],22.97 pg
same,MEAN CORPUSCULAR HEMOGLOBIN CONCENTRATION,[5],39.07 G/DL
same,MEAN CORPUSCULAR VOLUME,[5],58.67 fL
same,MONOCYTE,[5],1%
same,NEUTROPHIL,[5],7%
same,NUCLEATED RED BLOOD CELLS,[5],0.33 /100WBC
same,PLATELET COUNT,[5],1226 x10E3/uL
same,ALANINE AMINOTRANSFERASE,[6],46.33 u/L
same,ALKALINE PHOSPHATASE,[6],257 u/L
same,ASPARTATE AMINOTRANSFERASE,[6],82 u/L
same,BLOOD UREA NITROGEN,[6],11.67 mg/dL
same,CARBON DIOXIDE,[6],35 mmol/L
same,CHLORIDE,[6],97.67 MEQ/L
same,CHOLESTEROL,[6],86 mg/dL
same,CREATINE PHOSPHOKINASE,[6],294 u/L
same,CREATININE,[6],0.19 mg/dL
same,LACTATE DEHYDROGENASE,[6],99 u/L
same,PHOSPHORUS,[6],10.3 mg/dL
same,POTASSIUM,[6],5.89 MEQ/L
same,TOTAL BILIRUBIN,[6],0.13 mg/dL
same,TOTAL PROTEIN,[6],6 G/DL
same,URIC ACID,[6],0.7 mg/dL

# Reference: ChEMBL document CHEMBL3885881, “DrugMatrix”
